Our source for the IC50 values is patent US20230063238A1, “IMMUNOMODULATORS” (Bristol-Myers Squibb Company, priority 2020, published 2023).

Starred links: 1 amine or outer side, 2 acyl side, 3 side chain; linkers in the order of their positions; H or OH if unused. Positions of bridges follow the written chain, without caps; N, C: chain ends. Non-standard residues stand in square brackets, D forms with d. Residues, ends and D or L forms follow the SMILES beside them. *: point of attachment. Trp(1-CH2CO2Me) = COC(=O)Cn1cc(C[C@H](N)C(=O)O)c2ccccc21; Hyp = O=C(O)[C@@H]1C[C@@H](O)CN1; X8 = O=C(Nc1cc(F)cc(F)c1)C(=O)*; X5 = O=C(C(=O)*)N1CCc2ccccc2C1; Oxalyl = O=C(C(=O)[*:2])[*:1]; X3 = O=C(NCc1ccc(F)cc1)C(=O)*; X9 = O=C(Nc1ccc(F)cc1F)C(=O)*; NMeNle = CCCC[C@H](NC)C(=O)O; NMeA = CN[C@@H](C)C(=O)O; Dab = NCC[C@H](N)C(=O)O; Dap = NC[C@H](N)C(=O)O

For this experiment, the target named is T1, PD-1/PD-L1 (Homo sapiens, UniProt Q9NZQ7).
T1 construct: TVMV protease site linker (C); made in house; host or cells: HEK293T cells
T1 sequence (Q9NZQ7 18-239): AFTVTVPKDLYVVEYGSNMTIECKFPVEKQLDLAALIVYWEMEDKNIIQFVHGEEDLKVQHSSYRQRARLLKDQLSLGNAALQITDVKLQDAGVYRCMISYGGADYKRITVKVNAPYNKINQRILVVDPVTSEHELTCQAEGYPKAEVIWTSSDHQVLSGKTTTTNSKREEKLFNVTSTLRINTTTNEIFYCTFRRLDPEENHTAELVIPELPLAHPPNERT
The experiment can be described thus: PD-1/PD-L1 Homogenous Time-Resolved Fluorescence (HTRF) binding assay. The following applies: PD-L1-His 10 nM final, PD-1-Ig 20 nM final; inhibitors pre-incubated with PD-L1-His for 15 m. From the text: The ability of the compounds of formula (I) to bind to PD-L1 was investigated using a PD-1/PD-L1 Homogenous Time-Resolved Fluorescence (HTRF) binding assay.
Homogenous Time-Resolved Fluorescence (HTRF) Binding Assay
The interaction of PD-1 and PD-L1 can be assessed using soluble, purified preparations of the extracellular domains of the two proteins. The PD-1 and PD-L1 protein extracellular domains were expressed as fusion proteins with detection tags, for PD-1, the tag was the Fc portion of Immunoglobulin (PD-1-Ig) and for PD-L1 it was the 6 histidine motif (PD-L1-His). All binding studies were performed in an HTRF assay buffer consisting of dPBS supplemented with 0.1% […] bovine serum albumin and 0.05% (v/v) Tween-20. For the h/PD-L1-His binding assay, inhibitors were pre-incubated with PD-L1-His (10 nM final) for 15 m in 4 μl of assay buffer, followed by addition of PD-1-Ig (20 nM final) in 1 μl of assay buffer and further incubation for 15m. HTRF detection was achieved using europium crypate-labeled anti-Ig (1 nM final) and allophycocyanin (APC) labeled anti-His (20 nM final). Antibodies were diluted in HTRF detection buffer and 5 μl was dispensed on top of the binding reaction. The reaction mixture was allowed to equilibrate for 30 minutes and the resulting signal (665 nm/620 nm ratio) was obtained using an EnVision fluorometer. Additional binding assays were established between the human proteins PD-1-Ig/PD-L2-His (20 & 5 nM, respectively) and CD80-His/PD-L1-Ig (100 & 10 nM, respectively).
Recombinant Proteins: Human PD-1 (25-167) with a C-terminal human Fc domain of immunoglobulin G (Ig) epitope tag [hPD-1 (25-167)-3S-IG] and human PD-L1 (18-239) with a C-terminal His epitope tag [hPD-L1(18-239)-TVMV-His] were expressed in HEK293T cells and purified sequentially by ProteinA affinity chromatography and size exclusion chromatography. Human PD-L2-His and CD80-His was obtained through commercial sources.
Table 1 lists the IC50 values for representative examples of this disclosure measured in the PD-1/PD-L1 Homogenous Time-Resolved Fluorescence (HTRF) binding assay.
Background: In TR-FRET formats the signal depends on donor and acceptor labels being close together.

Usually IC50 stands for the point on the concentration scale where inhibition reaches its midpoint. Read a low IC50 as higher potency. Take `CCCC[C@H]1C(=O)N(C)[C@@H](CCCC)C(=O)N[C@@H](CC(C)C)C(=O)N[C@H](C(=O)NCC(N)=O)CSCC(=O)N[C@@H](Cc2ccc(O)cc2)C(=O)N(C)[C@@H](C)C(=O)N[C@@H](CC(N)=O)C(=O)N2CCC[C@H]2C(=O)N[C@@H](CNC(=O)C(=O)O)C(=O)N[C@@H](CC(C)C)C(=O)N2C[C@H](O)C[C@H]2C(=O)N[C@@H](Cc2c[nH]c3ccccc23)C(=O)N[C@@H](CCN)C(=O)N[C@@H](Cc2cn(CC(=O)OC)c3ccccc23)C(=O)N1C` [Compound 1002] ({CH2CO}-Y[NMeA]NP[Dap](Oxalyl)L[Hyp]W[Dab][Trp(1-CH2CO2Me)][NMeNle][NMeNle]LCG-NH2; thioether N-14): the IC50 was 3.1 nM. Consider `CCCC[C@H]1C(=O)N(C)[C@@H](CCCC)C(=O)N[C@@H](CC(C)C)C(=O)N[C@H](C(=O)NCC(N)=O)CSCC(=O)N[C@@H](Cc2ccc(O)cc2)C(=O)N(C)[C@@H](C)C(=O)N[C@@H](CC(N)=O)C(=O)N2CCC[C@H]2C(=O)N[C@@H](CNC(=O)C(=O)Nc2ccc(F)cc2F)C(=O)N[C@@H](CC(C)C)C(=O)N2C[C@H](O)C[C@H]2C(=O)N[C@@H](Cc2c[nH]c3ccccc23)C(=O)N[C@@H](CCNC(=O)C(=O)Nc2ccc(F)cc2F)C(=O)N[C@@H](Cc2cn(CC(=O)OC)c3ccccc23)C(=O)N1C` [Compound 2010] ({CH2CO}-Y[NMeA]NP[Dap](X9)L[Hyp]W[Dab](X9)[Trp(1-CH2CO2Me)][NMeNle][NMeNle]LCG-NH2; thioether N-14), for which the IC50 came out at 1.8 nM. As for `CCCC[C@H]1C(=O)N(C)[C@@H](CCCC)C(=O)N[C@@H](CC(C)C)C(=O)N[C@H](C(=O)NCC(N)=O)CSCC(=O)N[C@@H](Cc2ccc(O)cc2)C(=O)N(C)[C@@H](C)C(=O)N[C@@H](CC(N)=O)C(=O)N2CCC[C@H]2C(=O)N[C@@H](CNC(=O)C(=O)Nc2cc(F)cc(F)c2)C(=O)N[C@@H](CC(C)C)C(=O)N2C[C@H](O)C[C@H]2C(=O)N[C@@H](Cc2c[nH]c3ccccc23)C(=O)N[C@@H](CCNC(=O)C(=O)Nc2cc(F)cc(F)c2)C(=O)N[C@@H](Cc2cn(CC(=O)OC)c3ccccc23)C(=O)N1C` [Compound 2002] ({CH2CO}-Y[NMeA]NP[Dap](X8)L[Hyp]W[Dab](X8)[Trp(1-CH2CO2Me)][NMeNle][NMeNle]LCG-NH2; thioether N-14), the figure is 350 nM; as for `CCCC[C@H]1C(=O)N(C)[C@@H](CCCC)C(=O)N[C@@H](CC(C)C)C(=O)N[C@H](C(=O)NCC(N)=O)CSCC(=O)N[C@@H](Cc2ccc(O)cc2)C(=O)N(C)[C@@H](C)C(=O)N[C@@H](CC(N)=O)C(=O)N2CCC[C@H]2C(=O)N[C@@H](CNC(=O)C(=O)NCc2ccc(F)cc2)C(=O)N[C@@H](CC(C)C)C(=O)N2C[C@H](O)C[C@H]2C(=O)N[C@@H](Cc2c[nH]c3ccccc23)C(=O)N[C@@H](CCNC(=O)C(=O)NCc2ccc(F)cc2)C(=O)N[C@@H](Cc2cn(CC(=O)OC)c3ccccc23)C(=O)N1C` [Compound 2009] ({CH2CO}-Y[NMeA]NP[Dap](X3)L[Hyp]W[Dab](X3)[Trp(1-CH2CO2Me)][NMeNle][NMeNle]LCG-NH2; thioether N-14), 1.2 nM. To `CCCC[C@H]1C(=O)N(C)[C@@H](CCCC)C(=O)N[C@@H](CC(C)C)C(=O)N[C@H](C(=O)NCC(N)=O)CSCC(=O)N[C@@H](Cc2ccc(O)cc2)C(=O)N(C)[C@@H](C)C(=O)N[C@@H](CC(N)=O)C(=O)N2CCC[C@H]2C(=O)N[C@@H](CNC(=O)C(=O)N2CCc3ccccc3C2)C(=O)N[C@@H](CC(C)C)C(=O)N2C[C@H](O)C[C@H]2C(=O)N[C@@H](Cc2c[nH]c3ccccc23)C(=O)N[C@@H](CCNC(=O)C(=O)N2CCc3ccccc3C2)C(=O)N[C@@H](Cc2cn(CC(=O)OC)c3ccccc23)C(=O)N1C` [Compound 2001] ({CH2CO}-Y[NMeA]NP[Dap](X5)L[Hyp]W[Dab](X5)[Trp(1-CH2CO2Me)][NMeNle][NMeNle]LCG-NH2; thioether N-14) belongs 3.4 nM.
